In ChEMBL document CHEMBL3271949, “Drugs derived from cannabinoids. 3. Sulfur analogs, thiopyranobenzopyrans and thienobenzopyrans” (J Med Chem, 1976):
Active and inactive are the calls of the source.

Tests used:
Mus musculus [1] = experiment: Tranquilizer activity in albino BALB/cJ mouse assessed as reduction in footshock-induced fighting behavior at 10 mg/kg, po after 90 mins; type: functional; set-up: scale not given: the % may be the effect or the level left
Canis familiaris [2] = experiment: Toxicity in beagle-like dog assessed as reduced reactivity with ataxia observed for 24 hrs at 1 mg/kg, po single dose; type: organism-based, Canis lupus familiaris; set-up: dose 1 mg/kg, route oral; conditions: in vivo
Mus musculus [3] = experiment: Antidepressant activity in mouse assessed as potentiation of (+/-)-dopa-induced motor responses at 5 mg/kg, po administered 4 hrs before dopa challenge; type: functional, organism-based; set-up: dose 5 mg/kg
Mus musculus [4] = experiment: Antinociceptive activity in po dosed mouse assessed as inhibition of acetic acid-induced writhing administered 30 mins before acetic acid challenge measured after 5 to 20 mins; type: functional
[5] = Toxicity in po dosed mouse; type: organism-based; conditions: in vivo
Rattus norvegicus [6] = experiment: Spontaneous motor activity in Long-Evans rat at 5 mg/kg measured up to 2 hrs relative to control; type: functional
Canis familiaris [7] = experiment: Toxicity in beagle-like dog assessed as reduced reactivity with ataxia observed for 24 hrs at 0.1 mg/kg, po single dose; type: organism-based, Canis lupus familiaris; set-up: dose 0.1 mg/kg, route oral; conditions: in vivo
Rattus norvegicus [8] = experiment: Antihypertensive activity in spontaneous hypertensive rat assessed as reduction of blood pressure at 10 mg/kg, po after 4 hrs; type: functional; set-up: scale not given: the % may be the effect or the level left
Mus musculus [9] = organism: Mus musculus; experiment: Analgetic activity in mouse by hot-plate test; type: functional
Mus musculus [10] = experiment: Tranquilizer activity in albino BALB/cJ mouse assessed as reduction in footshock-induced fighting behavior at 5 mg/kg, po after 90 mins; type: functional; set-up: scale not given: the % may be the effect or the level left
Rattus norvegicus [11] = experiment: Antihypertensive activity in spontaneous hypertensive rat assessed as reduction of blood pressure at 10 mg/kg, po after 24 hrs; type: functional; set-up: scale not given: the % may be the effect or the level left
Felis catus = experiment: Sedative-hypnotic activity in po dosed cat assessed as rapid eye movement sleep; type: functional, organism-based
Canis familiaris [12] = experiment: Toxicity in beagle-like dog assessed as reduced reactivity with ataxia observed for 24 hrs at 10 mg/kg, po single dose; type: organism-based, Canis lupus familiaris; set-up: dose 10 mg/kg, route oral; conditions: in vivo
Rattus norvegicus [13] = experiment: Spontaneous motor activity in Long-Evans rat at 10 mg/kg measured up to 2 hrs relative to control; type: functional
Rattus norvegicus [14] = experiment: Antihypertensive activity in spontaneous hypertensive rat assessed as reduction of blood pressure at 10 mg/kg, po after 48 hrs; type: functional; set-up: scale not given: the % may be the effect or the level left
Rattus norvegicus [15] = experiment: Analgetic activity in po dosed Sprague-Dawley rat assessed as pain threshold after 15 to 90 mins by tail-flick test; type: functional

Row | SMILES | Activity (Mus musculus [1]) | Activity (Canis familiaris [2]) | Activity (Mus musculus [3]) | ED50 (Mus musculus [4]) | LD50 [5] | Activity (Rattus norvegicus [6]) | Activity (Canis familiaris [7]) | Activity (Rattus norvegicus [8]) | ED50 (Mus musculus [9]) | Activity (Mus musculus [10]) | Activity (Rattus norvegicus [11]) | Activity (Felis catus) | Activity (Canis familiaris [12]) | Activity (Rattus norvegicus [13]) | Activity (Rattus norvegicus [14]) | ED50 (Rattus norvegicus [15])
1 | CCCCCC(C)C(C)c1cc(OC(=O)CCCN2CCCCC2)c2c(c1)OC(C)(C)C1=C2CCS1.Cl (stereo unspecified) | 33% | Non-toxic | Active | 24 mg/kg | > 300 mg/kg | 1% |  |  |  |  |  |  |  |  |  | 
2 | CCCCCC(C)C(C)c1cc(O)c2c(c1)OC(C)(C)C1=C2CCS1 (stereo unspecified) | 33% |  | Active | 71.8 mg/kg | > 300 mg/kg | 1% | Toxic | 17% | 12.1 mg/kg | 1% | 2% | Active |  |  |  | 
3 | CCCCCC(C)C(C)c1cc(O)c2c(c1)OC(C)(C)C1=C2CSC1 (stereo unspecified) | 33% |  | Active | 51.7 mg/kg | > 300 mg/kg | 1% |  |  | > 120 mg/kg |  |  |  | Toxic |  |  | 
4 | CCCCCC(C)C(C)c1cc(OC(=O)CCCN2CCOCC2)c2c(c1)OC(C)(C)C1=C2CCS1.Cl (stereo unspecified) | 33% | Non-toxic | Active |  | > 300 mg/kg | 1% |  |  | > 50 mg/kg | 1% |  |  |  |  |  | 
5 | CCCCCC(C)C(C)c1cc(O)c2c(c1)OC(C)(C)C1=C2CCSC1 (stereo unspecified) |  |  | Active | > 40 mg/kg | > 300 mg/kg |  |  |  | > 40 mg/kg | 1% |  |  | Toxic | 1% |  | 
6 | CCCCCC(C)C(C)c1cc(O)c2c(c1)OC(C)(C)c1sccc1-2 (stereo unspecified) | 1% |  | Active | > 10 mg/kg | > 300 mg/kg | 1% |  |  |  |  |  |  |  |  |  | 
7 | CCCCCC(C)C(C)c1cc(OC(=O)C(C)CCN2CCOCC2)c2c(c1)OC(C)(C)C1=C2CCCS1.Cl.O (stereo unspecified) | 66% |  | Active | 22.6 mg/kg | > 300 mg/kg | 1% |  |  |  |  |  | inactive |  |  |  | 
8 | CCCCCC(C)C(C)c1cc(OC(=O)CCCN2CCCCC2)c2c(c1)OC(C)(C)C1=C2CCCS1.Cl (stereo unspecified) |  |  | Active | 14.7 mg/kg | > 300 mg/kg | 66% |  |  |  | 1% |  |  |  |  |  | 
9 | CCCCCC(C)C(C)c1cc(O)c2c(c1)OC(C)(C)C1=C2CCCS1 (stereo unspecified) [TINABINOL] | 1% | Toxic | Active | 8.6 mg/kg | > 300 mg/kg | 1% |  | 15% | 5.7 mg/kg |  | 28% | inactive |  |  | 19% | 2.7 mg/kg
